PMC6755732, “Structural, Biochemical, and In Vivo Characterization of MtrR-Mediated Resistance to Innate Antimicrobials by the Human Pathogen Neisseria gonorrhoeae” (Journal of Bacteriology, 2019)

Assays:
MtrR-mtrCDE promoter = target: T1, MtrR-mtrCDE promoter (Neisseria gonorrhoeae, UniProt P39897); assay type: biochemical; conditions: 10 mM CAPS, pH 8.0
T1 construct: nearly all 210 residues of each protomer observed, with the exception of residues 1 through 7; hexahistidine tag (thrombin-cleavable) (cleaved yes); made in house
Method: Thus, to rule out any effect of alkaline pH on MtrR-DNA interactions, we buffered the CAPS used in the FP assay to pH 8.0 before testing its effect on DNA binding.
Fluorescence polarization-based DNA binding experiments were performed with a Panvera Beacon 2000 fluorescence polarization system (Invitrogen) utilizing 5′-fluorescein-labeled DNA. Polarization (P) of such 5′-labeled DNA increases as a function of protein binding, and equilibrium dissociation constants are determined by curve fitting the values of millipolarization (P × 10^−3) units against the protein concentration. To determine the effects of various ligands on MtrR-DNA binding, 1 nM 5′-fluoresceinated oligodeoxynucleotide duplexes containing the mtrC operator site in 1 ml binding buffer (20 mM Tris HCl [pH 8.0], 100 mM NaCl, and 2.5% glycerol) were titrated against increasing concentrations of purified MtrR in the presence or absence of the indicated concentrations of bile salt, and the resulting changes in polarization were measured. All the samples were excited at 490 nm, and their polarized emissions were measured at 530 nm. All the data were plotted using Kaleidagraph (Synergy Software) and Prism (GraphPad Software), and the resulting plots were fitted to the following equation: P = {(Pbound − Pfree)[protein]/(KD + [protein])} + Pfree, where P is the polarization measured at a given protein concentration, Pfree is the initial polarization of the free ligand, Pbound is the maximum polarization of specifically bound ligand, KD is the equilibrium dissociation constant, and [protein] is the protein concentration. Nonlinear least-squares analysis was used to determine Pbound, and Kd. The reported binding constants are the average values from at least three independent experimental measurements.

[1] = CAPS buffer; no reference given; cited from earlier work

T1 sequence (P39897 whole entry): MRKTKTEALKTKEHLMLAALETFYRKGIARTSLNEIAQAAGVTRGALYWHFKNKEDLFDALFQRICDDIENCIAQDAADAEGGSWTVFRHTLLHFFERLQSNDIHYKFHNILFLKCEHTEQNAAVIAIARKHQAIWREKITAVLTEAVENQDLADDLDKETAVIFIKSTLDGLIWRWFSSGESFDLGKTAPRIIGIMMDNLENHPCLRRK

SMILES: O=S(=O)(O)CCCNC1CCCCC1 [CAPS, N-cyclohexyl-3-aminopropanesulfonic acid]
- Fold reduction of MtrR affinity for the mtrC operator sequence (MtrR-mtrCDE promoter): > 300 fold
- pKa [1]: ~10.5
